Reference: US20190124918A1, “BIOFILM FORMATION INHIBITOR AND BIOFILM FORMATION INHIBITING COMPOSITION” (KAO CORPORATION, priority 2016, published 2019)

Tests used:
[1] = tested on: Pseudomonas PAO1 strain (ATCC 15692); test: Growth of test microbe (turbidity OD600), 96-well microplate culture; type: cell-based; details: for inhibition at 18 ppm: final concentration 18 ppm; for inhibition at 37 ppm: final concentration 37 ppm; for inhibition at 5 ppm: final concentration 5 ppm
Experimental: (§1) Pseudomonas PAO1 strain (ATCC 15692) was subjected to stationary culture performed in LB culture medium (Lysogeny Broth; manufactured by Becton Dickinson) at 37° C. for 24 hours. The turbidity (OD600) of the culture solution was measured. The culture solution was diluted with Mueller Hinton Broth (BBL made) to prepare a suspension (15 mL) having a turbidity (OD600) of 1/10^6.
To each of the wells of a 96-well microplate (351172; manufactured by Japan Becton Dickinson), 6 μL of DMSO (Tokyo Chemical Industry Co. Ltd) and an ethanol solution (1 μL, 3 μL or 5 μL) of a test compound were added. After that, the microplate was allowed to stand still at room temperature for 5 hours to evaporate ethanol. The suspension of Pseudomonas microbe prepared in the above step 1) was added in an amount of 145 μL per well and culture was initiated. As the test compound, 2-methylhydroquinone (Sigma Aldrich) and p-toluquinone (Tokyo Kasei) were used. As a reference compound, sodium hypochlorite (manufactured by Wako Pure Chemical Industries Ltd.) was used. As a control, an ethanol solvent (EtOH control) alone was used. The concentration of the test compound in the ethanol solution is 1,000 ppm or 10,000 ppm and the final concentration of the test compound in the culture solution was about from 7 to 333 ppm.
(§2) After the 96-well microplate was subjected to stationary culture performed at 30° C. for 24 hours, turbidity (OD600) was measured to check growth. Subsequently, individual wells were stained with 0.1% crystal violet and thoroughly washed twice with physiological saline. To each well, 200 μL of ethanol was added and the absorbance (OD570) was measured to obtain the amount of the biofilm formed.
Compounds listed in Table 3 were each added to a test microbe and culture was conducted by the same procedure as in Test Example 1 and the amount of growth (OD600) and the amount of biofilm formed (OD570) were measured. For compounds a, b, c, f, h, i, J and k, 20 mM ethanol solutions were prepared; whereas for compounds d, e, g, 5 mM ethanol solutions were prepared. The solutions were each added to a 96-well microplate in an amount of 1 to 8 μL and evaluation was made. The final concentrations of the individual compounds are described in Table 3.
(§3) Growth inhibition rates relative to the control (ethanol alone) were calculated based on OD600 values measured and in accordance with the following expression. In addition, biofilm (BF) formation inhibition rates relative to the control (ethanol alone) were calculated based on OD570 values and in accordance with the following expression:
Growth inhibition (%)=(1−(compound addition group OD600/control group OD600))×100
(§4) As a control, an ethanol solvent alone was used (EtOH control). The concentrations of test compounds in the ethanol solution were as follows: test compound 1: 20 mM, test compounds 2 to 7: 100 mM. To each of the wells of a 96-well microplate (351172; manufactured by Japan Becton Dickinson), 6 μL of DMSO (Tokyo Kasei) and an ethanol solution of each test compound (1 to 8 μL) were added and then the microplates were allowed to stand still at room temperature for 5 hours to evaporate ethanol. A suspension solution of a Pseudomonas microbe prepared in the same procedure as in Test Example 1, 1) was added in an amount of 145 μL per well and culture was initiated.
as §2, with “culture” for “culture performed”, “formed. The growth inhibition rate and biofilm (BF) formation inhibition rate were calculated based on OD600 and OD570 values measured and in accordance with the expressions used in Test Example 2.” for “formed.”

[2] = tested on: Pseudomonas PAO1 strain (ATCC 15692); test: Amount of biofilm formed (crystal violet, OD570), 96-well microplate culture; type: cell-based; details: for inhibition at 18 ppm: final concentration 18 ppm; for inhibition at 37 ppm: final concentration 37 ppm; for inhibition at 5 ppm: final concentration 5 ppm
Experimental: as §1, with “1/10^6. […]” for “1/10^6.”
as §3
BF inhibition (%)={1−(compound addition group OD570/control group OD570)}×100
as §4
as §2, with “culture” for “culture performed”, “formed. The growth inhibition rate and biofilm (BF) formation inhibition rate were calculated based on OD600 and OD570 values measured and in accordance with the expressions used in Test Example 2.” for “formed.”

[3] = Pseudomonas, read-out: Growth inhibition (%)
[4] = Pseudomonas, read-out: BF inhibition (%)
[5] = high concentration range of 200 ppm or more

Compound: Cc1cc(O)c(C)c(O)c1 [Compound 5, 2,5-Dimethylresorcinol]
- inhibition at 92 ppm [1, 3]: < 0%
- inhibition at 184 ppm [1, 3]: < 0%
- inhibition at 368 ppm [1, 3]: < 0%
- inhibition at 552 ppm [1, 3]: 9.3%
- inhibition at 644 ppm [1, 3]: 14%
- inhibition at 736 ppm [1, 3]: 11.1%
- inhibition at 92 ppm [2, 4]: < 0%
- inhibition at 184 ppm [2, 4]: 0.4%
- inhibition at 368 ppm [2, 4]: < 0%
- inhibition at 552 ppm [2, 4]: 10.4%
- inhibition at 644 ppm [2, 4]: 20.4%
- inhibition at 736 ppm [2, 4]: 55%

Compound: CCc1cc(O)ccc1O [f, Ethylquinol]
- inhibition at 18 ppm ([1]; Pseudomonas): 2.1%
- inhibition at 37 ppm ([1]; Pseudomonas): 5.5%
- inhibition at 74 ppm ([1]; Pseudomonas, final concentration 74 ppm): < 0%
- inhibition at 110 ppm ([1]; Pseudomonas, final concentration 110 ppm): < 0%
- inhibition at 129 ppm ([1]; Pseudomonas, final concentration 129 ppm): < 0%
- inhibition at 147 ppm ([1]; Pseudomonas, final concentration 147 ppm): < 0%
- inhibition at 18 ppm [2, 4]: 18.6%
- inhibition at 37 ppm [2, 4]: 31.1%
- inhibition at 74 ppm ([2]; Pseudomonas, final concentration 74 ppm, read-out: BF inhibition (%)): 40.6%
- inhibition at 110 ppm ([2]; Pseudomonas, final concentration 110 ppm, read-out: BF inhibition (%)): 50.8%
- inhibition at 129 ppm ([2]; Pseudomonas, final concentration 129 ppm, read-out: BF inhibition (%)): 75.4%
- inhibition at 147 ppm ([2]; Pseudomonas, final concentration 147 ppm, read-out: BF inhibition (%)): 78.9%

Compound: CC(C)c1ccc(O)cc1O [Compound 7, 4-Isopropylresorcinol]
- inhibition at 101 ppm ([1]; Pseudomonas, Test Example 3, final concentration 101 ppm): < 0%
- inhibition at 203 ppm ([1]; Pseudomonas, Test Example 3, final concentration 203 ppm): 5.7%
- inhibition at 405 ppm ([1]; Pseudomonas, Test Example 3, final concentration 405 ppm): < 0%
- inhibition at 608 ppm ([1]; Pseudomonas, Test Example 3, final concentration 608 ppm): 4.8%
- inhibition at 709 ppm ([1]; Pseudomonas, Test Example 3, final concentration 709 ppm): 19.5%
- inhibition at 810 ppm ([1]; Pseudomonas, Test Example 3, final concentration 810 ppm): 40.2%
- inhibition at 101 ppm ([2]; Pseudomonas, Test Example 3, final concentration 101 ppm, read-out: BF inhibition (%)): < 0%
- inhibition at 203 ppm ([2]; Pseudomonas, Test Example 3, final concentration 203 ppm, read-out: BF inhibition (%)): < 0%
- inhibition at 405 ppm ([2]; Pseudomonas, Test Example 3, final concentration 405 ppm, read-out: BF inhibition (%)): < 0%
- inhibition at 608 ppm ([2]; Pseudomonas, Test Example 3, final concentration 608 ppm, read-out: BF inhibition (%)): 29.1%
- inhibition at 709 ppm ([2]; Pseudomonas, Test Example 3, final concentration 709 ppm, read-out: BF inhibition (%)): 29.3%
- inhibition at 810 ppm ([2]; Pseudomonas, Test Example 3, final concentration 810 ppm, read-out: BF inhibition (%)): 21%

Compound: Cc1cc(O)ccc1O [b, 2-Methylhydroquinone]
- inhibition at 16 ppm ([1]; Pseudomonas, final concentration 16 ppm): 31.2%
- inhibition at 33 ppm ([1]; Pseudomonas, final concentration 33 ppm): < 0%
- inhibition at 65 ppm ([1]; Pseudomonas, final concentration 65 ppm): 4%
- inhibition at 98 ppm ([1]; Pseudomonas, final concentration 98 ppm): < 0%
- inhibition at 114 ppm ([1]; Pseudomonas, final concentration 114 ppm): 1.5%
- inhibition at 130 ppm ([1]; Pseudomonas, final concentration 130 ppm): 0%
- Growth OD600 ([1]; final concentration 7 ppm, EtOH control 0.5913): 0.6114
- Growth OD600 ([1]; final concentration 20 ppm, EtOH control 0.6346): 0.6276
- Growth OD600 ([1]; final concentration 33 ppm, EtOH control 0.668): 0.6291
- Growth OD600 ([1]; final concentration 67 ppm, EtOH control 0.628): 0.471
- Growth OD600 ([1]; final concentration 200 ppm, EtOH control 0.6045): 0.3373
- Growth OD600 ([1]; final concentration 333 ppm, EtOH control 0.6088): 0.4302
- microbial growth (in words) [1, 5]: inhibited
- inhibition at 16 ppm ([2]; Pseudomonas, final concentration 16 ppm, read-out: BF inhibition (%)): 51.4%
- inhibition at 33 ppm ([2]; Pseudomonas, final concentration 33 ppm, read-out: BF inhibition (%)): 42.5%
- inhibition at 65 ppm ([2]; Pseudomonas, final concentration 65 ppm, read-out: BF inhibition (%)): 76.5%
- inhibition at 98 ppm ([2]; Pseudomonas, final concentration 98 ppm, read-out: BF inhibition (%)): 87.3%
- inhibition at 114 ppm ([2]; Pseudomonas, final concentration 114 ppm, read-out: BF inhibition (%)): 95.2%
- inhibition at 130 ppm ([2]; Pseudomonas, final concentration 130 ppm, read-out: BF inhibition (%)): 96.2%
- The amount of the biofilm formed OD570 ([2]; final concentration 7 ppm, EtOH control 0.9163): 0.7615
- The amount of the biofilm formed OD570 ([2]; final concentration 20 ppm, EtOH control 0.9564): 0.7848
- The amount of the biofilm formed OD570 ([2]; final concentration 33 ppm, EtOH control 0.8974): 0.739
- The amount of the biofilm formed OD570 ([2]; final concentration 67 ppm, EtOH control 0.8853): 0.5875
- The amount of the biofilm formed OD570 ([2]; final concentration 200 ppm, EtOH control 0.9248): 0.0566
- The amount of the biofilm formed OD570 ([2]; final concentration 333 ppm, EtOH control 0.9562): 0.0744
- biofilm formation (in words) [2, 5]: inhibited
- biofilm formation (in words) ([2]; low concentration range of less than 200 ppm): inhibited

Compound: Cc1cc(O)c(C)c(C)c1O [g, 2,3,5-Trimethylhydroquinone]
- inhibition at 5 ppm ([1]; Pseudomonas): < 0%
- inhibition at 10 ppm ([1]; Pseudomonas, final concentration 10 ppm): < 0%
- inhibition at 20 ppm ([1]; Pseudomonas, final concentration 20 ppm): 0.1%
- inhibition at 30 ppm ([1]; Pseudomonas, final concentration 30 ppm): 65.8%
- inhibition at 35 ppm ([1]; Pseudomonas, final concentration 35 ppm): 67.5%
- inhibition at 41 ppm ([1]; Pseudomonas, final concentration 41 ppm): 68.5%
- inhibition at 5 ppm [2, 4]: 45.5%
- inhibition at 10 ppm ([2]; Pseudomonas, final concentration 10 ppm, read-out: BF inhibition (%)): 42.2%
- inhibition at 20 ppm ([2]; Pseudomonas, final concentration 20 ppm, read-out: BF inhibition (%)): 48%
- inhibition at 30 ppm ([2]; Pseudomonas, final concentration 30 ppm, read-out: BF inhibition (%)): 54.7%
- inhibition at 35 ppm ([2]; Pseudomonas, final concentration 35 ppm, read-out: BF inhibition (%)): 93.9%
- inhibition at 41 ppm ([2]; Pseudomonas, final concentration 41 ppm, read-out: BF inhibition (%)): 90.4%

Compound: CC(C)(C)C1=CC(=O)C=CC1=O [k, tert-Butylbenzoquinone]
- inhibition at 22 ppm ([1]; Pseudomonas, final concentration 22 ppm): 8.9%
- inhibition at 44 ppm ([1]; Pseudomonas, final concentration 44 ppm): < 0%
- inhibition at 88 ppm ([1]; Pseudomonas, final concentration 88 ppm): < 0%
- inhibition at 131 ppm ([1]; Pseudomonas, final concentration 131 ppm): < 0%
- inhibition at 154 ppm ([1]; Pseudomonas, final concentration 154 ppm): < 0%
- inhibition at 175 ppm ([1]; Pseudomonas, final concentration 175 ppm): < 0%
- inhibition at 22 ppm ([2]; Pseudomonas, final concentration 22 ppm, read-out: BF inhibition (%)): < 0%
- inhibition at 44 ppm ([2]; Pseudomonas, final concentration 44 ppm, read-out: BF inhibition (%)): < 0%
- inhibition at 88 ppm ([2]; Pseudomonas, final concentration 88 ppm, read-out: BF inhibition (%)): < 0%
- inhibition at 131 ppm ([2]; Pseudomonas, final concentration 131 ppm, read-out: BF inhibition (%)): < 0%
- inhibition at 154 ppm ([2]; Pseudomonas, final concentration 154 ppm, read-out: BF inhibition (%)): 26.2%
- inhibition at 175 ppm ([2]; Pseudomonas, final concentration 175 ppm, read-out: BF inhibition (%)): 30.3%

Compound: Cc1cc(O)cc(C)c1O [d, 2,6-Dimethylhydroquinone]
- inhibition at 5 ppm ([1]; Pseudomonas): < 0%
- inhibition at 9 ppm ([1]; Pseudomonas, final concentration 9 ppm): 6.3%
- inhibition at 18 ppm ([1]; Pseudomonas): 0.8%
- inhibition at 27 ppm ([1]; Pseudomonas, final concentration 27 ppm): 6.6%
- inhibition at 32 ppm ([1]; Pseudomonas, final concentration 32 ppm): 14%
- inhibition at 37 ppm ([1]; Pseudomonas): 5.4%
- inhibition at 5 ppm [2, 4]: 12.7%
- inhibition at 9 ppm ([2]; Pseudomonas, final concentration 9 ppm, read-out: BF inhibition (%)): 11.2%
- inhibition at 18 ppm [2, 4]: < 0%
- inhibition at 27 ppm ([2]; Pseudomonas, final concentration 27 ppm, read-out: BF inhibition (%)): 6.3%
- inhibition at 32 ppm ([2]; Pseudomonas, final concentration 32 ppm, read-out: BF inhibition (%)): 17.8%
- inhibition at 37 ppm [2, 4]: 31.9%
